# Results as given in patent publication US9440957B2, “Compounds and compositions for modulating EGFR Activity” (Novartis AG, priority 2012, dated 2016).
# Read-outs that look alike come from different tables or passages of the source.
# What was measured:
# EGFR(L858R/T790M) = biological target: T1, EGFR(L858R/T790M) (Homo sapiens, UniProt P00533, L858R/T790M); test: EGFR biochemical assay (HTRF), IC50 determinations
# T1 construct: purchased from Carna (GST-a.a. 669-1210)
# Procedure, shortened: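 Two formats were run: compound preincubated at room temperature with enzyme and biotin-TK peptide before ATP starts the reaction, or no preincubation with enzyme added last. Reactions ran 60 min at room temperature and were stopped with EDTA. Phosphopeptide was read by HTRF (PT66K/SAXL, 1 h).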
# H1975 (EGFR L858/T790M) = H1975 (EGFR L858/T790M) (Homo sapiens, UniProt P00533, L858R/T790M); test: EGFR target modulation in H1975 cell line (phospho-EGFR Y1173 ELISA); type: cell-based
# Procedure, shortened: (§1)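 3 h compound exposure of cells in 10% FBS/RPMI, 37 °C; lysis on ice 20 min; lysate captured overnight at 4 °C on anti-EGFR-coated plates; anti-rabbit-HRP, chemiluminescence.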
# H3255 (EGFR L858R) = H3255 (EGFR L858R) (Homo sapiens, UniProt P00533, L858R); test: EGFR target modulation in H3255 cell line (phospho-EGFR Y1173 ELISA); type: cell-based
# Procedure, shortened: as §1
# HaCaT (EGFR WT) = HaCaT (EGFR WT) (Homo sapiens, UniProt P00533); test: EGFR target modulation in HaCaT (EGFR-WT) cell line (phospho-EGFR Y1173 ELISA); type: cell-based; conditions: value in parentheses
# Description: EGFR Target Modulation in HaCaT (EGFR-WT) Cell Line Tissue Culture. […] The serial diluted compounds were transferred to the plate containing cells by using a 50 nl Pin Head device (Perkin Elmer) and the cells were placed back in the incubator for 3 hours. […] Phospho-EGFR ([…]) ELISA. Solid white high-binding ELISA plates (Greiner #781074) were coated with 5 ug/ml anti-EGFR capture antibody (R&D Systems #AF231) overnight in 50 mM carbonate/bicarbonate pH 9.5 buffer. […] Wash steps were carried out with a Bio-Tek ELx405 SelectTM using 4 cycles of 100 ul TBS-T (20 mM Tris, 137 mM NaCl, 0.05% Tween-20) per well. […] Lysis was allowed to occur for 20 minutes on ice. A 25 ul aliquot was added to each well of the blocked ELISA plate and incubated overnight at 4° C. with gentle shaking. […] After washing, 1:2,000 anti-rabbit-HRP (Cell Signaling #7074) in 0.2% BSA/TBS-T was added and incubated for 1 hour at room temperature. Chemiluminescent detection was carried out with SuperSignal ELISA Pico substrate (ThermoScientific #37069). Signal was read on EnVision plate reader using built-in UltraLUM setting. Data Analysis. Control cells treated with EGF were set to 100% maximum response. […] With these parameters, the IC50's for each compound in each cell line was calculated using non-linear curve fitting analysis.
# [1] = biological target: human EGFR WT (NIH/3T3 cells, EGF-induced) (Homo sapiens, UniProt P00533); test: EGFR target modulation in engineered NIH/3T3 cell lines (phospho-EGFR Y1068 AlphaLISA), EGFR WT; type: cell-based; conditions: engineered NIH/3T3 cells, read-out: NIH3T3 IC50 (μM) EGFR (WT)
# Procedure, shortened: (§2)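 Engineered NIH/3T3 cells were plated overnight, then exposed to a 12-point 1:3 compound series (from a 10 μM stock) for 3 hours at 37 °C. WT-expressing cells alone were stimulated with 50 ng/ml EGF for 5 minutes before lysis. IC50s came from non-linear fits of AlphaLISA signal.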
# [2] = biological target: human EGFR L858R (NIH/3T3 cells) (Homo sapiens, UniProt P00533, L858R); test: EGFR target modulation in engineered NIH/3T3 cell lines (phospho-EGFR Y1068 AlphaLISA), EGFR L858R; type: cell-based; conditions: engineered NIH/3T3 cells, read-out: NIH3T3 IC50 (μM) EGFR (L858R)
# Procedure, shortened: as §2
# [3] = biological target: human EGFR L858R/T790M (NIH/3T3 cells) (Homo sapiens, UniProt P00533, L858R/T790M); test: EGFR target modulation in engineered NIH/3T3 cell lines (phospho-EGFR Y1068 AlphaLISA), EGFR L858R/T790M; type: cell-based; conditions: engineered NIH/3T3 cells, read-out: NIH3T3 IC50 (μM) EGFR (L858R/T790M)
# Procedure, shortened: as §2
# HCC827 (Del E746-A750) = HCC827 (Del E746-A750) (Homo sapiens, UniProt P00533, DEL746-750); test: EGFR target modulation in HCC827 cell line (phospho-EGFR Y1173 ELISA); type: cell-based
# Description: EGFR Target Modulation in H1975, H3255 and HCC827 Cell Lines Tissue Culture. Cells were maintained in 10% FBS/RPMI supplemented with 100 μg/ml Penicillin/Streptomycin (Hyclone #SH30236.01). […] The cells were allowed to incubate overnight in a 37° C., 5% CO2 humidified tissue culture incubator. […] The serial diluted compounds were transferred to the plate containing cells by using a 50 nl Pin Head device (Perkin Elmer) and the cells were placed back in the incubator for 3 hours. Phospho-EGFR ([…]) Target Modulation Assay. The media was reduced to 20 ul using a Bio-Tek ELx 405 SelectTM plate washer. […] The plates were shaken at 4° C. for 20 minutes. An aliquot of 25 ul from each well was transferred to pEGFR(Y1173) ELISA plates for analysis. Phospho-EGFR ([…]) ELISA. Solid white high-binding ELISA plates (Greiner #781074) were coated with 5 ug/ml anti-EGFR capture antibody (R&D Systems #AF231) overnight in 50 mM carbonate/bicarbonate pH 9.5 buffer. Plates were blocked with 1% BSA (Sigma #A7030) in PBS for 1 hour at room temperature. Wash steps were carried out with a Bio-Tek ELx405 SelectTM using 4 cycles of 100 ul TBS-T (20 mM Tris, 137 mM NaCl, 0.05% Tween-20) per well. […] Lysis was allowed to occur for 20 minutes on ice. A 25 ul aliquot was added to each well of the blocked ELISA plate and incubated overnight at 4° C. with gentle shaking. […] After washing, 1:2,000 anti-rabbit-HRP (Cell Signaling #7074) in 0.2% BSA/TBS-T was added and incubated for 1 hour at room temperature. Chemiluminescent detection was carried out with SuperSignal ELISA Pico substrate (ThermoScientific #37069). Signal was read on EnVision plate reader using built-in UltraLUM setting. Data Analysis. Control cells treated with EGF were set to 100% maximum response. […] With these parameters, the IC50's for each compound in each cell line was calculated using non-linear curve fitting analysis.
# HEKn (EGFR WT) = HEKn (EGFR WT) (Homo sapiens, UniProt P00533); test: EGFR target modulation in HEKn (EGFR-WT) cell line (phospho-EGFR Y1173 ELISA); type: cell-based; conditions: value outside parentheses
# Procedure, shortened: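 Read-out was Y1173 phosphorylation, measured by chemiluminescent ELISA with anti-EGFR capture of lysates. HEKn keratinocytes (wild-type EGFR) were treated with compound for 3 h.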
# [4] = EGFR (L858R/T790M) with 90 min pre-incubation, read-out: IC50 (μM) Column B
# [5] = EGFR (L858R/T790M) with no pre-incubation, read-out: IC50 (μM) Column A
# T1 sequence (P00533 669-1210 T790M/L858R): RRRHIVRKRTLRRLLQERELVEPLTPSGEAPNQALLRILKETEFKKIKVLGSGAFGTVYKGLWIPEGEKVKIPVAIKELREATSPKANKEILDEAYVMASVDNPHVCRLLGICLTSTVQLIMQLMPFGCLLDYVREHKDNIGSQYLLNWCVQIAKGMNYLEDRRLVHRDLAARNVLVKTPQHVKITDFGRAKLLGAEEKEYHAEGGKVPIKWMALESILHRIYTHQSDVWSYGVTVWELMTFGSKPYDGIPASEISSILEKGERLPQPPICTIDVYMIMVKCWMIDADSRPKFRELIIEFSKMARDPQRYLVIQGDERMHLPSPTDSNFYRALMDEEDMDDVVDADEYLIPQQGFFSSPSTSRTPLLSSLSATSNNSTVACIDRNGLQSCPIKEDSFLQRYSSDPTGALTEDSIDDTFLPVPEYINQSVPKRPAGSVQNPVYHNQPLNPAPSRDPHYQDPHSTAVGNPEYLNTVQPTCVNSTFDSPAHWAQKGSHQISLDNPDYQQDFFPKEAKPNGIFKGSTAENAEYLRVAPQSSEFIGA
# Chain of human EGFR L858R/T790M (NIH/3T3 cells) (P00533 25-1210 T790M/L858R): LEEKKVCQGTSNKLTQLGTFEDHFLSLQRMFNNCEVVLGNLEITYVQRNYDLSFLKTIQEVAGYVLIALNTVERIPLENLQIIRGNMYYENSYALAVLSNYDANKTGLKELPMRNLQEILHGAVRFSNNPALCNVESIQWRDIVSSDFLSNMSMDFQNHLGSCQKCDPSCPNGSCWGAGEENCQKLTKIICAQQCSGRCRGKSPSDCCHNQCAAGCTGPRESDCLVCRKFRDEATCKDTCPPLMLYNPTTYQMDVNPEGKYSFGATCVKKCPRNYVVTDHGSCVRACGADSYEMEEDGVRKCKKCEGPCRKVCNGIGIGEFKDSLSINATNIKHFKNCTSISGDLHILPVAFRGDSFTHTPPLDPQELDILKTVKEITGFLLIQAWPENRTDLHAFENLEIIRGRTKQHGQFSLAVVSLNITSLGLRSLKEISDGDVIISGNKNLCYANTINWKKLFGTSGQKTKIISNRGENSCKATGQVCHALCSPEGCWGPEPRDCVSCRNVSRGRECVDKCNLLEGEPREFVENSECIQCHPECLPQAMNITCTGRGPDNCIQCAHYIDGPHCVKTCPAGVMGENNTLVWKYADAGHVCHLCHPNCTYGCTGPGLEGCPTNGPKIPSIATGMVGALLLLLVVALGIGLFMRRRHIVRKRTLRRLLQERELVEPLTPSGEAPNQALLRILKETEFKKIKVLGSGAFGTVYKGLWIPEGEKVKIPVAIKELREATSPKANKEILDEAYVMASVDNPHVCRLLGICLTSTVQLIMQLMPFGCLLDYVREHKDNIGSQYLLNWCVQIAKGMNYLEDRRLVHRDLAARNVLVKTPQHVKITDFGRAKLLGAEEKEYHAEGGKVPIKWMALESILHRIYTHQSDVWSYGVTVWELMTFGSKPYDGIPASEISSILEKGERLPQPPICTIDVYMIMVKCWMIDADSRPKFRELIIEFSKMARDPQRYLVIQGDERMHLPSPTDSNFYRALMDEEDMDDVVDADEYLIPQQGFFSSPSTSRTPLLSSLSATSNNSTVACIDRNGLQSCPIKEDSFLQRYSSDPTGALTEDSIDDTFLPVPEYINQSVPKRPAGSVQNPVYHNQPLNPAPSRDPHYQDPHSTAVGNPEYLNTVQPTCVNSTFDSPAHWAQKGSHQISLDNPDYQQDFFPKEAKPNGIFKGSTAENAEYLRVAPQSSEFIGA
# Chain of H1975 (EGFR L858/T790M) (P00533 25-1210 T790M/L858R): as above
# Chain of HCC827 (Del E746-A750) (P00533 with tags, fused parts or gaps DEL746-750): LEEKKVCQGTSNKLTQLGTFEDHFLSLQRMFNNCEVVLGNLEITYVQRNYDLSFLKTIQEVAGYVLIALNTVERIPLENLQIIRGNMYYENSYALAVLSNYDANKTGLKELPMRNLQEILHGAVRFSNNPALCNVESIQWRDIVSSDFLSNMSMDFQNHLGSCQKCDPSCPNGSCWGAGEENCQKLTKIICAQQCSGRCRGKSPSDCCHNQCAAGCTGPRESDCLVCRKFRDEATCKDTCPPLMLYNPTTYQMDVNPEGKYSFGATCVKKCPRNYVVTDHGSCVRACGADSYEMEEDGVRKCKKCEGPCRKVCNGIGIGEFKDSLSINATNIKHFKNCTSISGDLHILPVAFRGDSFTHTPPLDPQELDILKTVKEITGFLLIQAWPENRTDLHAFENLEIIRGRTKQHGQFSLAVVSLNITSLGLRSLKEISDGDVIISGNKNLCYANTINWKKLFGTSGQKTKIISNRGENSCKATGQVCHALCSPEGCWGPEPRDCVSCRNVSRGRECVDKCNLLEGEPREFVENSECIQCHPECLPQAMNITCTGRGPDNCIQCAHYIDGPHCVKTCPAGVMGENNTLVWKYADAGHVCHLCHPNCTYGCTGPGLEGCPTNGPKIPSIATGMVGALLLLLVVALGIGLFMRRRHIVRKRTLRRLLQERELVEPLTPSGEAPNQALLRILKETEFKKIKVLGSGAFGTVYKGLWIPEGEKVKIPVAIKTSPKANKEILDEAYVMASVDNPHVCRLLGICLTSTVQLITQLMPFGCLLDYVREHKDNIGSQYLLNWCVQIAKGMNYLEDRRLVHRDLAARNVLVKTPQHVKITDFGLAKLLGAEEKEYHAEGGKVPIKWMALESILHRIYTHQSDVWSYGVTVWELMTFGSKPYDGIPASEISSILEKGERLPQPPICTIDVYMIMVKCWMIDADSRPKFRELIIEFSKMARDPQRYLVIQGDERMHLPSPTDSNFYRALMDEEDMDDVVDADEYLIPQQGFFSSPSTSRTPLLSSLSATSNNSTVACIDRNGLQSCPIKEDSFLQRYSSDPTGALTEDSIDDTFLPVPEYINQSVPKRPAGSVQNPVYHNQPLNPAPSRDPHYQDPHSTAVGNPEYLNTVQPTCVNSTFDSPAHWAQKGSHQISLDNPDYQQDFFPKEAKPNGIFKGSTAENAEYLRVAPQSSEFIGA
SMILES,IC50 (EGFR(L858R/T790M); [4]) [µM],IC50 (EGFR(L858R/T790M); [5]) [µM],IC50 (H1975 (EGFR L858/T790M)) [nM],IC50 (H3255 (EGFR L858R)) [nM],IC50 (HaCaT (EGFR WT)) [nM],IC50 [1] [µM],IC50 [2] [µM],IC50 [3] [µM],IC50 (HCC827 (Del E746-A750)) [nM],IC50 (HEKn (EGFR WT)) [nM]
"Cc1cc(C(=O)Nc2nc3cccc(Cl)c3n2C2CCCCN(C(=O)/C=C/CN(C)C)C2)cc(P(C)(C)=O)n1 (single isomer, unassigned) [Example 21-9A]",3.7,32.4,> 10000,6580,> 10000,–,–,–,–,–
"Cc1cc(C(=O)Nc2nc3cccc(Cl)c3n2C2CCCCN(C(=O)/C=C/CN(C)C)C2)cc(P(C)(C)=O)n1 (single isomer, unassigned) [Example 21-9B]",0.024,0.894,314,312,> 10000,–,–,–,–,–
Cc1cccc2nc(NC(=O)c3ccnc(OC(F)F)c3)n([C@@H]3CCCCN(C(=O)/C=C/CN(C)C)C3)c12 [Example 17-103],< 0.001,< 0.001,1,2,–,0.019,< 0.001,< 0.001,< 1,98
C=CC(=O)N1CCC[C@@H](n2c(NC(=O)c3cccc(C(F)(F)F)c3)nc3cccc(C)c32)C1 [Example 17-106],0.002,0.038,9,83,–,> 10,0.124,0.007,153,> 10000
C=CC(=O)N1CCC[C@@H](n2c(NC(=O)c3cccc(C(F)(F)F)c3)nc3cc(CN4CCOCC4)ccc32)C1 [Example 17-112],0.003,0.04,15,155,–,> 10,0.04,0.006,135,> 10000
C=CC(=O)N1CCCC[C@@H](n2c(NC(=O)c3cc(C)nc(C)c3)nc3cc(CN4CCCC4)cc(C)c32)C1 [Example 17-113],< 0.001,0.003,2,4,–,0.081,0.001,0.001,< 1,265
C=CC(=O)N1CCC[C@@H](n2c(NC(=O)c3cccc(C(F)(F)F)c3)nc3cc(CN4CCCC4)ccc32)C1 [Example 17-117],0.004,0.036,13,290,–,6.4,0.05,0.006,243,> 10000
C=CC(=O)N1CCC[C@@H](n2c(NC(=O)c3cccc(C(F)(F)F)c3)nc3cc(CN(C)C(C)=O)ccc32)C1 [Example 17-119],0.008,0.062,10,118,–,5,0.051,0.008,71,> 6900
C=CC(=O)N1CCC[C@@H](n2c(NC(=O)c3cccc(C(F)(F)F)c3)nc3cc(COC)ccc32)C1 [Example 17-122],< 0.001,0.062,16,390,–,> 10,0.176,0.02,90,> 10000
C=CC(=O)N1CCC[C@@H](n2c(NC(=O)c3cccc(C(F)(F)F)c3)nc3cc(COCC)ccc32)C1 [Example 17-123],0.004,0.115,22,199,–,> 10,0.174,0.017,291,> 10000
C=CC(=O)N1CCCC[C@@H](n2c(NC(=O)c3ccnc(C)c3)nc3cc(CN4CCCC4)cc(C)c32)C1 [Example 17-126],< 0.001,0.001,< 1,2,–,0.024,< 0.001,< 0.001,< 1,65
C=CC(=O)N1CCCC[C@@H](n2c(NC(=O)c3ccnc(C)c3)nc3cc(CN4CCCCC4)cc(C)c32)C1 [Example 17-144],< 0.001,0.002,< 1,1,–,0.029,< 0.001,< 0.001,< 1,72
C=CC(=O)N1CCCC[C@@H](n2c(NC(=O)c3ccnc(C)c3)nc3cc(CN4CCC4)cc(C)c32)C1 [Example 17-145],< 0.001,0.001,1,2,–,0.026,< 0.001,0.001,< 1,95
C=CC(=O)N1CCCC[C@@H](n2c(NC(=O)c3ccnc(C)c3)nc3cc(CN4CCC(F)(F)C4)cc(C)c32)C1 [Example 17-151],< 0.001,0.001,< 1,1,–,0.014,< 0.001,0.001,< 1,36
C=CC(=O)N1CCCC[C@@H](n2c(NC(=O)c3ccnc(C)c3)nc3cc(CN4CC(F)(F)C4)cc(C)c32)C1 [Example 17-153],< 0.001,0.002,< 1,2,–,0.037,0.001,0.001,< 1,61
C=CC(=O)N1CCCC[C@@H](n2c(NC(=O)c3ccnc(C)c3)nc3cc(CN4CCS(=O)(=O)CC4)cc(C)c32)C1 [Example 17-155],< 0.001,0.002,2,2,–,0.065,0.002,0.002,< 1,61
